Results on 15 compounds are retold here after ChEMBL document CHEMBL2074014, “Role of blood-brain barrier organic anion transporter 3 (OAT3) in the efflux of indoxyl sulfate, a uremic toxin: its involvement in neurotransmitter metabolite clearance from the brain” (J Neurochem, 2002).

Structures are written as SMILES.

The target in series [1] is T1, Organic anion transporter 3 (OAT3) (Rattus norvegicus, UniProt Q9R1U7).
T1 sequence (Q9R1U7 whole entry): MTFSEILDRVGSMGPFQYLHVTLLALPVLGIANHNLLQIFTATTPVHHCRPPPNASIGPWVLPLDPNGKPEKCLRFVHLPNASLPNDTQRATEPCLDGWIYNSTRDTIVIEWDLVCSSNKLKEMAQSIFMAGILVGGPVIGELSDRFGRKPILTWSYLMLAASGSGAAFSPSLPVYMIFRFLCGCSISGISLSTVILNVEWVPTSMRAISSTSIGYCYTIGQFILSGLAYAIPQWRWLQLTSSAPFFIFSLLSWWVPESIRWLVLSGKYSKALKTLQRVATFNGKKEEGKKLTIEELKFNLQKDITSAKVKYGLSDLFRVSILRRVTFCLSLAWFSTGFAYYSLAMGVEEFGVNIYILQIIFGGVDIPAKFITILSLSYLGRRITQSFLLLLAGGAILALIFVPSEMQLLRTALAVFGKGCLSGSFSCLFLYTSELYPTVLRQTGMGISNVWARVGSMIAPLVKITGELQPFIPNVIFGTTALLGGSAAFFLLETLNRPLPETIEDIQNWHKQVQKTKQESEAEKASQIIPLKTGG
Description: TP_TRANSPORTER: inhibition of Indoxyl sulfate uptake (Indoxyl sulfate: 2 uM, 5-Methoxytryptophol: 1000 uM) in Xenopus laevis oocytes. More on the design: scale not given: the % may be the effect or the level left. Format: functional, cell-based, Oocyte. The conditions noted are these: probe Indoxyl sulfate, read-out: Activity.

The target in series [2] is T1, Organic anion transporter 3 (OAT3). In words: TP_TRANSPORTER: inhibition of Indoxyl sulfate uptake (Indoxyl sulfate: 2 uM, 3-Methoxy-4-hydroxymandelic acid: 1000 uM) in Xenopus laevis oocytes. Format: functional, cell-based, Oocyte. More on the design: scale not given: the % may be the effect or the level left. The conditions noted are these: probe Indoxyl sulfate, read-out: Activity.

Series [3] shares this target. In words: TP_TRANSPORTER: inhibition of Indoxyl sulfate uptake (Indoxyl sulfate: 2 uM, 3,4-Dihydroxymandelic acid: 1000 uM) in Xenopus laevis oocytes. Format: functional, cell-based, Oocyte. More on the design: scale not given: the % may be the effect or the level left. The conditions noted are these: probe Indoxyl sulfate, read-out: Activity.
Series [4] has the same target. Description: TP_TRANSPORTER: inhibition of Indoxyl sulfate uptake (Indoxyl sulfate: 2 uM, 5-Hydroxyindole acetic acid: 1000 uM) in Xenopus laevis oocytes. The conditions noted are these: probe Indoxyl sulfate, read-out: Activity. More on the design: scale not given: the % may be the effect or the level left. Format: functional, cell-based, Oocyte.
Series [5] shares this target. In words: TP_TRANSPORTER: inhibition of Indoxyl sulfate uptake (Indoxyl sulfate: 2 uM, 3,4-Dihydroxyphenylacetic acid: 1000 uM) in Xenopus laevis oocytes. Format: functional, cell-based, Oocyte. More on the design: scale not given: the % may be the effect or the level left. The conditions noted are these: probe Indoxyl sulfate, read-out: Activity.
Series [6] shares this target. Description: TP_TRANSPORTER: inhibition of Indoxyl sulfate uptake (Indoxyl sulfate: 2 uM, ACV: 1000 uM) in Xenopus laevis oocytes. Format: functional, cell-based, Oocyte. Further details: scale not given: the % may be the effect or the level left. The conditions noted are these: probe Indoxyl sulfate, read-out: Activity.
Series [7] shares this target. In words: TP_TRANSPORTER: inhibition of Indoxyl sulfate uptake (Indoxyl sulfate: 2 uM, Baclofen: 1000 uM) in Xenopus laevis oocytes. Further details: scale not given: the % may be the effect or the level left. The class given is functional, cell-based, Oocyte. The conditions noted are these: probe Indoxyl sulfate, read-out: Activity.
For series [8] the target is unchanged. In words: TP_TRANSPORTER: inhibition of Indoxyl sulfate uptake (Indoxyl sulfate: 2 uM, Benzoic acid: 1000 uM) in Xenopus laevis oocytes. The conditions noted are these: probe Indoxyl sulfate, read-out: Activity. More on the design: scale not given: the % may be the effect or the level left. Format: functional, cell-based, Oocyte.
The target is the same in series [9]. Description: TP_TRANSPORTER: inhibition of Indoxyl sulfate uptake (Indoxyl sulfate: 2 uM, Cefazolin: 1000 uM) in Xenopus laevis oocytes. Format: functional, cell-based, Oocyte. Further details: scale not given: the % may be the effect or the level left. The conditions noted are these: probe Indoxyl sulfate, read-out: Activity.
For series [10] the target is unchanged. In words: TP_TRANSPORTER: inhibition of Indoxyl sulfate uptake (Indoxyl sulfate: 2 uM, HVA: 1000 uM) in Xenopus laevis oocytes. Format: functional, cell-based, Oocyte. More on the design: scale not given: the % may be the effect or the level left. The conditions noted are these: probe Indoxyl sulfate, read-out: Activity.
Series [11] has the same target. Description: TP_TRANSPORTER: inhibition of Indoxyl sulfate uptake (Indoxyl sulfate: 2 uM, Imidazoleacetic acid: 1000 uM) in Xenopus laevis oocytes. Format: functional, cell-based, Oocyte. More on the design: scale not given: the % may be the effect or the level left. The conditions noted are these: probe Indoxyl sulfate, read-out: Activity.
Series [12] deals with T2, Organic anion transporter 3 (Rattus norvegicus, UniProt Q9R1U7).
T2 sequence (Q9R1U7 whole entry): T1 sequence (Q9R1U7 whole entry)
Description: TP_TRANSPORTER: inhibition of Indoxyl sulfate uptake (Indoxyl sulfate: 2 uM, Ketoprofen: 1000 uM) in Xenopus laevis oocytes. The class given is functional, cell-based. The conditions noted are these: oocyte. Further details: scale not given: the % may be the effect or the level left.

In series [13] the target is T1, Organic anion transporter 3 (OAT3). Description: TP_TRANSPORTER: inhibition of Indoxyl sulfate uptake (Indoxyl sulfate: 2 uM, Melatonin: 1000 uM) in Xenopus laevis oocytes. The class given is functional, cell-based, Oocyte. More on the design: scale not given: the % may be the effect or the level left. The conditions noted are these: probe Indoxyl sulfate, read-out: Activity.

The target is the same in series [14]. In words: TP_TRANSPORTER: inhibition of Indoxyl sulfate uptake (Indoxyl sulfate: 2 uM, 6-mercaptopurine: 1000 uM) in Xenopus laevis oocytes. The class given is functional, cell-based, Oocyte. Further details: scale not given: the % may be the effect or the level left. The conditions noted are these: probe Indoxyl sulfate, read-out: Activity.
Series [15] addresses T2, Organic anion transporter 3. Description: TP_TRANSPORTER: inhibition of Indoxyl sulfate uptake (Indoxyl sulfate: 2 uM, Valproic acid: 1000 uM) in Xenopus laevis oocytes. Format: functional, cell-based. The conditions noted are these: oocyte.

As for `COc1ccc2[nH]cc(CCO)c2c1`, the activity at 1000 µM in series [1] turned out to be 26.8%.

Turning to `COc1cc([C@@H](O)C(=O)O)ccc1O`, in series [2], the activity at 1000 µM is 27.3%. Take `O=C(O)[C@H](O)c1ccc(O)c(O)c1`: the activity at 1000 µM in series [3] is 33.5%.

Consider `O=C(O)Cc1c[nH]c2ccc(O)cc12`, for which the activity at 1000 µM in [4] turned out to be 18.7%. `O=C(O)Cc1ccc(O)c(O)c1` [3,4-DIHYDROXYPHENYLACETIC ACID]: in series [5], the activity at 1000 µM came out at 8.86%. With `Nc1nc2c(ncn2COCCO)c(=O)[nH]1` [ACYCLOVIR], the activity at 1000 µM in [6] stood at 7.66%.

Turning to `NCC(CC(=O)O)c1ccc(Cl)cc1` (stereo not given) [BACLOFEN], the activity at 1000 µM in [7] amounted to 25.7%.

As for `O=C(O)c1ccccc1` [BENZOIC ACID], the activity at 1000 µM in series [8] came to 71.6%. Turning to `Cc1nnc(SCC2=C(C(=O)O)N3C(=O)[C@@H](NC(=O)Cn4cnnn4)[C@H]3SC2)s1` [CEFAZOLIN], in [9], the activity at 1000 µM amounted to 13.6%.

For `COc1cc(CC(=O)O)ccc1O` [HOMOVANILLIC ACID], the activity at 1000 µM in series [10] is 29.9%.

As to `O=C(O)Cc1ncc[nH]1` [IMIDAZOLEACETIC ACID], the activity at 1000 µM in [11] was determined as 69.4%. As for `CC(C(=O)O)c1cccc(C(=O)c2ccccc2)c1` (stereo not given) [KETOPROFEN], in series [12], the Activity is reported as 22.3%. With `COc1ccc2[nH]cc(CCNC(C)=O)c2c1` [MELATONIN], the activity at 1000 µM in series [13] is 30.9%. As to `Sc1ncnc2nc[nH]c12` [MERCAPTOPURINE ANHYDROUS], the activity at 1000 µM in [14] worked out at 19.1%. Regarding `CCCC(CCC)C(=O)O` [VALPROIC ACID], the Activity entry in series [15] was “is not an inhibitor [-]”.
